Positions count from the first letter of the chain named. Values joined by “and” are separate entries in the source; they are usually repeats but may differ in a detail not shown here. Equal entries are not always repeated. One block for each molecule: values may come before it. Ends that are not written are not given here.
Tests used:
human NPY Y5 receptor [1] = target: T1, human NPY Y5 receptor (Homo sapiens, UniProt Q15761); assay: [125I]PYY competition binding, human Y5 clone transiently expressed in COS-7 membranes; conditions: transient COS-7 membranes, ± SEM, read-out: NPY Y5 binding affinity Ki, HUMAN Clone
T1 construct: containing the full length open reading frame encoding the receptor; expressed in transfected cells
T1 sequence (Q15761 1-445): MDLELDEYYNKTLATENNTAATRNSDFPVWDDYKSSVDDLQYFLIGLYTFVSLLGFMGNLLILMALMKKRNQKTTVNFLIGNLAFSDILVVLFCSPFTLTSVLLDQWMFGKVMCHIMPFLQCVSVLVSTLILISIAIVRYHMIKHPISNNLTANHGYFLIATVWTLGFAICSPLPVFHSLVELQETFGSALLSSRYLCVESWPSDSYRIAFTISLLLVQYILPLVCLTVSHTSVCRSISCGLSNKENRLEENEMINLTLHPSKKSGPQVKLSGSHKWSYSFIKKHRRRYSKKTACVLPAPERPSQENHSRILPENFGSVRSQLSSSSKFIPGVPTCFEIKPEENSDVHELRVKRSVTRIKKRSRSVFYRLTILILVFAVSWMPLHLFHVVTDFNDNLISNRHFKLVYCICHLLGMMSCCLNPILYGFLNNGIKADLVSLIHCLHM

[2] = target: T2, rat NPY Y5 receptor (6B clone) (Rattus norvegicus, UniProt Q63634, L61P); assay: [125I]PYY competition binding, rat Y5 6B clone transiently expressed in COS-7 membranes; conditions: transient COS-7 membranes, ± SEM, read-out: NPY Y5 binding affinity Ki, RAT 6B Clone
T2 construct: expressed in transfected cells; host or cells: COS-7 (transient), membranes
T2 sequence (Q63634 1-445 L61P): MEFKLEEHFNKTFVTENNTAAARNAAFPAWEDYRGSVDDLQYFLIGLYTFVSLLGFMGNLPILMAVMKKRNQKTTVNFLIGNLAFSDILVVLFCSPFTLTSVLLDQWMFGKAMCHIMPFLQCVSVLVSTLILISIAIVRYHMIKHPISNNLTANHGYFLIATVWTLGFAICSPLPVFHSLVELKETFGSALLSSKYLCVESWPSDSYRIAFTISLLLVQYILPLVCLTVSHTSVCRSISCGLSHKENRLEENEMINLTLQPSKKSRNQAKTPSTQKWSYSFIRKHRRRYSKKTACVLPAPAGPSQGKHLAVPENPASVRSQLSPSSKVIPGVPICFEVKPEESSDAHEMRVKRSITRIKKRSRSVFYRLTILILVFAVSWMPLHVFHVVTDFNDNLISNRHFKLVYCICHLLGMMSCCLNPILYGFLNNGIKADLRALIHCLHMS
Procedure: Cells at 70% confluency were transfected with Y5 DNA using the Lipofectamine method (GIBCO-BRL). 15 μg DNA and 90 μl Lipofectamine were added to each flask. Media was completely replaced 24 hours post transfection, and membranes were harvested 24 hours later.
The media was removed from each flask of transfected cells, and the cells were washed twice with 20 ml ice-cold phosphate buffered saline. The cells were scraped from the flask in 5 ml of Tris buffer (20 mM Tris-HCl and 5 mM EDTA, pH 7.7), and then transferred to a centrifuge tube. Each flask was washed with an additional 5 ml of Tris buffer and combined in the centrifuge tube. The cells were polytroned for 2×10 seconds (12 mm probe, 7000-8000 rpm) and centrifuged 5 minutes (Centra 7R, International Equipment Co., Needham Heights, Mass.) at 800 rpm and 4° C. […] Protein concentration was measured using the Bio-Rad kit pursuant to the standard manufacturer's protocol (Biorad Laboratories, Hercules, Calif.),with bovine IgG as the standard. […]
(§1) After a 2 hour incubation at room temperature with constant mixing, the samples were aspirated on a vacuum manifold. […] The individual wells were punched into 12×75 mm plastic tubes, and counted on a Wallac (Gaithersburg, Md.) gamma counter. Binding data were analyzed using the nonlinear regression curve-fitting program RS/1 (BBN Software Products Corp., Cambridge, Mass.). […]

[3] = target: T3, rat NPY Y5 receptor (Y861 clone) (Rattus norvegicus, UniProt Q63634); assay: [125I]PYY competition binding, rat Y5 Y861 clone transiently expressed in COS-7 membranes; design: expressed in transfected cells; host or cells: COS-7 (transient), membranes; conditions: transient COS-7 membranes, ± SEM, read-out: NPY Y5 binding affinity Ki, RAT Y861 Clone
T3 sequence (Q63634 1-445): T2 sequence (Q63634 1-445 L61P) with P61L
Procedure: Monkey kidney cells (COS-7) were maintained in T-175 cm^2 flasks (NUNC) at 37° C. with 5% CO2 in a humidified atmosphere. Cells were grown in Dulbecco's Modified Eagle Medium (DMEM) supplemented with 2 mM glutamine, 10% fetal bovine serum, 1 mM sodium pyruvate, and antibiotic/antimycotic. Cells at 70% confluency were transfected with Y5 DNA using the Lipofectamine method (GIBCO-BRL). 15 μg DNA and 90 μl Lipofectamine were added to each flask. Media was completely replaced 24 hours post transfection, and membranes were harvested 24 hours later.
The media was removed from each flask of transfected cells, and the cells were washed twice with 20 ml ice-cold phosphate buffered saline. The cells were scraped from the flask in 5 ml of Tris buffer (20 mM Tris-HCl and 5 mM EDTA, pH 7.7), and then transferred to a centrifuge tube. […] Protein concentration was measured using the Bio-Rad kit pursuant to the standard manufacturer's protocol (Biorad Laboratories, Hercules, Calif.),with bovine IgG as the standard. […]
as §1

[4] = test system: food intake of Wistar rats; assay: In vivo feeding after ICV injection in rats; design: species or system rat; conditions: for Feeding: ICV, 1-6 nmoles peptide, chow consumed in 2 hours; for Feeding response in rats (in words): in vivo feeding model
Procedure: Adult male Wistar rats were surgically implanted with a chronic intracerebral ventricular (ICV) cannula (Plastic Products, Roanoke, Va.) using a stereotaxic instrument. Several days after the surgery, 1-6 nmoles of each peptide (or saline) was injected into the lateral ventricle of 4-12 rats in a volume of 5-10 μl. The quantity of rodent chow consumed in a 2 hour period was measured.

Rat Y2 (clone) = target: T4, Rat Y2 (clone) (Rattus norvegicus, UniProt Q9ERC0); assay: [125I]PYY binding assay for rat Y2 receptor
T4 sequence (Q9ERC0 1-381): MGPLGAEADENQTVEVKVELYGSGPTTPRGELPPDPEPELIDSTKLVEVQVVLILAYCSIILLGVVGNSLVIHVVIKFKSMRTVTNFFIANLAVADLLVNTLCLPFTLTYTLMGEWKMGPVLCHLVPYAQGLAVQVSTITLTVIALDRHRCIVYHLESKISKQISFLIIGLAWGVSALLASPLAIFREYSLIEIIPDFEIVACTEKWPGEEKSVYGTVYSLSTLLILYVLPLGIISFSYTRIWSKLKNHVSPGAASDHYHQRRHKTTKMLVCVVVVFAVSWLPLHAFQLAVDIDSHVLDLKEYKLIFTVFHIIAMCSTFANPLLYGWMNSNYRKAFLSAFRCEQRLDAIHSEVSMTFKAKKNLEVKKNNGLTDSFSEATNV

Rat Y1 (clone) = target: T5, Rat Y1 (clone) (Rattus norvegicus, UniProt P21555); assay: [125I]PYY binding assay for rat Y1 receptor
T5 sequence (P21555 1-382): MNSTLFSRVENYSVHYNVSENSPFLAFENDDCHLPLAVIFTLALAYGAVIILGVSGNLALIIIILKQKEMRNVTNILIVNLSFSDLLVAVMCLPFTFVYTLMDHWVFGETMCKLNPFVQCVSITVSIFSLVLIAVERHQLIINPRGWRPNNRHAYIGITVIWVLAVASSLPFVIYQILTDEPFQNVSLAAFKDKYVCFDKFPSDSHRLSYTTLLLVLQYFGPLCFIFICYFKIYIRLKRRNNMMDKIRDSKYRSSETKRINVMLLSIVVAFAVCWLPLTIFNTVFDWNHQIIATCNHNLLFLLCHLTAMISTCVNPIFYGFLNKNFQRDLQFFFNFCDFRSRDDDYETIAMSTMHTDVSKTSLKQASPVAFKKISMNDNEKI

[5] = target: T6, rat NPY Y5 receptor, Y861 clone (rat, UniProt Q63634 1-445); assay: [125I]PYY competition, membranes of stable 293S clone 293S.Y861.2
T6 sequence: T2 sequence (Q63634 1-445 L61P) with P61L

human NPY Y5 receptor [6] = target: T7, human NPY Y5 receptor (human, UniProt Q15761 1-445); assay: [125I]PYY competition, membranes of stable 293 clone 293.hY5.sb.8
T7 construct: also called HUMAN Clone
T7 sequence: T1 sequence (Q15761 1-445)

human NPY Y5 receptor [7] = target: T7, human NPY Y5 receptor; assay: [125I]PYY competition, membranes of transiently transfected COS-7 cells; individual experiment
Procedure: The binding assays were performed on GF/C Millipore (Bedford, Mass.) 96-well plates pretreated with 0.02% polyethylenimine (PEI) for at least 2 hours prior to use. The PEI was aspirated from the plates on a vacuum manifold immediately before the samples were added to the wells. All peptides, tissue and radioligand were diluted with binding buffer (25 mM Tris, 120 mM NaCl, 5 mM KCl, 1.2 MM KH₂PO₄, 2.5 mM CaCl₂, 1.2 mM MgSO₄, 0.1% BSA and 0.5 mg/ml bacitracin, pH 7.4).
After a 2 hour incubation at room temperature with constant mixing, the samples were aspirated on a vacuum manifold. The wells were washed with three 200 μl aliquots of ice-cold binding buffer. The individual wells were punched into 12×75 mm plastic tubes, and counted on a Wallac (Gaithersburg, Md.) gamma counter. Binding data were analyzed using the nonlinear regression curve-fitting program RS/1 (BBN Software Products Corp., Cambridge, Mass.).
Each point is the average value of triplicate determinations from a representative experiment. […] Kᵢ values were calculated from the IC₅₀ values using the Cheng-Prusoff correction, such that Kᵢ=IC₅₀/(1±(L/Kd)), where L is the radioligand concentration and Kd is the dissociation constant.

[8] = target: T6, rat NPY Y5 receptor, Y861 clone; assay: cell-based or functional assay

Ki (human NPY Y5 receptor [1]): > 1000 nM | Ki [2]: > 1000 nM | Ki [3]: > 1000 nM
Molecule: NC(N)=NCCC[C@@H](NC(=O)C(c1ccccc1)c1ccccc1)C(=O)NCc1ccc(O)cc1 [BIBP3226]

Molecule: (2-36)NPY [r/h(2-36)NPY]
Feeding [4]: >5 g/2 h

Affinity for Y2 receptor (in words) (Rat Y2 (clone)): binds preferentially | Affinity for Y1 receptor (in words) (Rat Y1 (clone)): much weaker
Molecule: (3-36)NPY [p(3-36)NPY]
Feeding [4]: >5 g/2 h | Feeding response in rats (in words) [4]: stimulate feeding

Molecule: (10-36)NPY [r/h(10-36)NPY]
Feeding [4]: <3 g/2 h

Ki [5]: 29 nM | Ki (human NPY Y5 receptor [6]): 24 nM
Molecule: (13-36)PYY (peptide)

Molecule: (18-36)NPY [p(18-36)NPY]
Feeding [4]: <3 g/2 h

Molecule: (20-36)NPY [r/h(20-36)NPY]
Feeding [4]: <3 g/2 h | Feeding response in rats (in words) [4]: do not elicit feeding

Molecule: (22-36)NPY [r/h(22-36)NPY]
Feeding [4]: <3 g/2 h

Molecule: (26-36)NPY [r/h(26-36)NPY]
Feeding [4]: <3 g/2 h

Molecule: (Leu^31Pro^34)(3-36)NPY [(LP)(3-36)NPY]
Feeding [4]: >5 g/2 h | Feeding response in rats (in words) [4]: stimulates feeding

Molecule: (Leu^31Pro^34)NPY [p(LP)NPY]
Feeding [4]: >5 g/2 h | Feeding response in rats (in words) [4]: stimulate feeding

Molecule: (Leu^31Pro^34)PYY [h(LP)PYY]
Feeding [4]: >5 g/2 h

Molecule: Neuropeptide Y [r/hNPY]
Feeding [4]: >5 g/2 h

Ki (human NPY Y5 receptor [7]): 89 nM and 65 nM
B1: r(13-36)NPY (peptide, UniProt P07808 42-65, looked up)
peptide: PAEDMARYYSALRHYINLITRQRY
modifications: ends and bridges not checked
notes: range 13-36; it may be a misprint for r(13-36)PYY (rat NPY is elsewhere written r/h)

EC50, forskolin-stimulated adenylate cyclase (cAMP), 293S.Y861.2 cells [8]: 1 nM
B2: hPP (human pancreatic polypeptide) (peptide, UniProt P01298 30-65, looked up)
peptide: APLEPVYPGDNATPEQMAQYAADLRRYINMLTRPRY

— patent US20060189530A1 (Bayer Corporation, priority 1996, published 2006)
